Patent publication US20030082803A1, “Cell cycle control” (priority 1999, published 2003)

Tests used:
[1] = tested on: mES cells; test: Cell cycle arrest and cell cycle structure by flow cytometry of PI-stained mES cells; type: cell-based, murine; conditions: up to concentrations of 140 μM
Experimental: Cdk2 activity levels determine the rate of mES cell division but not cell cycle structure. (A) mES cells were grown for up to 8 passages in the presence (+) or absence (−) of Ro09-3033 (2 μM). Cdk2, cyclin E and cyclin B-associated H1 kinase activities were assayed as described previously after immunoprecipitation from whole cell lysates (100 μg protein). Input loading control was determined by probing immunoblots (15 μg lysate protein) with α-Cdk2 and α-Oct4 polyclonal antibodies. Quantitation of H1 kinase activities are shown in the lower panel as the average of two independent experiments. (B) Northern blot analysis of Oct4, Rex-1 and GAPDH transcripts from mES cells grown with (+) or without (−) inhibitor (2 μM) for the number of passages indicated. RNA was resolved by agarose gel electrophoresis, blotted and hybridized with [^32P]-labelled Oct4, Rex-1 and GAPDH probes (15 μg total RNA per lane). […] (C) After 8 passages in the presence (+) or absence (−) of 2 μM Ro09-3033, mES and mEPL cells were fixed and stained with PI and analysed by flow cytometry. […] Generation times of mEPL cells were not determined in this experiment.
In preparation for flow cytometry, cells were resuspended in 300 μl of PBS supplemented with 1% FCS. […] Cells were stained by the addition of 2.5 mg/ml propidium iodide (Sigma) and 0.5 mg/ml RNAase A and analysed on a Beckman-Coulter flow cytometer with WinMDi software.

[2] = accumulation of cells at G1/S or G2/M, reference (31); cited from earlier work

CC[C@H](CO)Nc1nc(NCc2ccccc2)c2ncn(C(C)C)c2n1 [roscovitine]
Effect on cell division times or cell cycle structure in mES cells [1]: no effect | Concentration range in which it typically acts as a cell cycle specific inhibitor [2]: 20 to 30 µM
